Assay results from patent publication US10227331B2 (priority 2015, dated 2019).
Counter-ions that a name gives are not always drawn. Like-named read-outs stand apart in the source and are kept apart here.

Key:
[1] = molecular target: IMP-1 (Serratia marcescens, UniProt P52699); assay: biochemical; format: biochemical
Method: (§1) Enzyme Activity: Determination of IC50
(§2) The Class B enzyme activities were measured in the presence of the test inhibitor in a fluorescence assay against a commercially available substrate consisting of a cephalosporin core linking 7-hydroxycoumarin to fluorescein (CCF2-FA). […] In a 384-well microplate, the test inhibitor was incubated with the metallo-β-lactamase enzyme and the substrate for 2 hours at 25° C. […] The IC50 value was determined from semi-logarithmic plots of enzyme inhibition versus inhibitor concentration, with a curve generated using a 4-parameter fit.

[2] = molecular target: NDM-1 (Klebsiella pneumoniae, UniProt C7C422); assay: biochemical; format: biochemical; settings: CCF2-FA substrate, 2 hours at 25° C; read-out: NDM-1 IC50
Chain of NDM-1 (C7C422 whole entry, looked up, species assumed): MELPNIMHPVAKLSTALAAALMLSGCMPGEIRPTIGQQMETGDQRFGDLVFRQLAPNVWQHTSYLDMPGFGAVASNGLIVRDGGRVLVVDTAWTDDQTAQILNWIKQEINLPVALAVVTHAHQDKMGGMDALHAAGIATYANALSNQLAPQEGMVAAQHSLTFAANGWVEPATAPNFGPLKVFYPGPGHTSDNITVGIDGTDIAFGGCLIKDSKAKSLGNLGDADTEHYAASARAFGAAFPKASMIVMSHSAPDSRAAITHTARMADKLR
Method: as §1, §2

[3] = molecular target: VIM-1 (Pseudomonas aeruginosa (strain ATCC 15692 / DSM 22644 / CIP 104116 / JCM 14847 / LMG 12228 / 1C / PRS 101 / PAO1), UniProt A0A0F7KYQ8); assay: biochemical; settings: CCF2-FA substrate, 2 hours at 25° C
Outline: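 Two-hour, 25° C incubation of enzyme with inhibitor and CCF2-FA (7-hydroxycoumarin–cephalosporin–fluorescein). Fluorescence read-out; IC50 via 4-parameter fit.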

[4] = tested on: Escherichia coli expressing NDM-1 (CLB30005, CLB30016); format: cell-based; settings: with imipenem 1 μg/ml, 95% inhibition of bacterial growth; for Escherichia coli MITC95: NDM-1 (CLB30016)
Outline: (§3)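 Colonies from overnight 35 °C blood-agar cultures were suspended in saline, diluted 1:100 into 1.1× CAMHB and exposed to test compound with or without imipenem at 1 μg/ml. After 22–24 h at 35 °C, absorbance was read to find the concentration restoring imipenem susceptibility.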

[5] = tested on: Klebsiella pneumoniae expressing VIM-1 (IHMA599644); format: cell-based; settings: with imipenem 1 μg/ml, 95% inhibition of bacterial growth; for Klebsiella pneumoniae MITC95: VIM-1 (IHMA599644)
Outline: as §3

[6] = tested on: Serratia marcescens expressing IMP-1 (CL5741); format: cell-based; settings: with imipenem 1 μg/ml, 95% inhibition of bacterial growth; for Serratia marcescens MITC95: IMP-1 (CL5741)
Outline: as §3

[7] = tested on: P. aeruginosa expressing IMP-1, efflux+ (MB9798); format: cell-based, Pseudomonas aeruginosa; settings: for P. aeruginosa expressing IMP-1, efflux+ (MB9798) MITC95: imipenem at 2 μg/mL, in the presence of a class A, C, D serine β-lactamase inhibitor closely related to relebactam; for Efflux ratio: ratio MITC95 PA_9798/MITC95 PA_9799
Excerpt: (§4) The strain background is Pseudomonas aeruginosa PAO1.

[8] = tested on: P. aeruginosa expressing IMP-1, efflux− (MB9799); assay: Efflux: concentration of MBL inhibitor which restores susceptibility to imipenem; format: cell-based, Pseudomonas aeruginosa; settings: imipenem at 2 μg/mL, in the presence of a class A, C, D serine β-lactamase inhibitor closely related to relebactam
Excerpt: as §4

[9] = CCF2-FA substrate, 2 hours at 25° C, read-out: IMP-1 IC50

Chain of IMP-1 (P52699 whole entry, looked up, species assumed): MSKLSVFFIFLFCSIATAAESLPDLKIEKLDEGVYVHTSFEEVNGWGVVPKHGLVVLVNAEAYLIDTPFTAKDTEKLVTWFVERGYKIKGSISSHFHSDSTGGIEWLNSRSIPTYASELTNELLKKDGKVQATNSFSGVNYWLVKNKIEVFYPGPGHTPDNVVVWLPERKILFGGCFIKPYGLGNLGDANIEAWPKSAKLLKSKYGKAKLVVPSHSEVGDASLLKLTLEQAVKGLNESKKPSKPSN

## NS(=O)(=O)c1c(Sc2ccncc2)ccc(-c2ccc(C3CCNCC3)cc2)c1-c1nn[nH]n1 [Example 242, 4′-(Piperidin-4-yl)-4-(pyridin-4-ylthio)-2-(2H-tetrazol-5-yl)-[1,1′-biphenyl]-3-sulfonamide]
[1]; [9]
  IC50: 3.34 nM
[2]
  IC50: 4.01 nM
[3]
  IC50: 7.47 nM
[4]
  Escherichia coli expressing NDM-1 (CLB30016) MITC95: 12.5 µM
[5]
  Klebsiella pneumoniae expressing VIM-1 (IHMA599644) MITC95: 50 µM
[6]
  Serratia marcescens expressing IMP-1 (CL5741) MITC95: 6.25 µM
[7]
  P. aeruginosa expressing IMP-1, efflux+ (MB9798) MITC95: 50 µM
  Efflux ratio: 31.99
[8]
  P. aeruginosa expressing IMP-1, efflux− (MB9799) MITC95: 1.563 µM

## NC[C@@H](O)CS(=O)(=O)c1ccc(-c2cc(I)cc3[nH]c(N)nc23)c(-c2nn[nH]n2)c1S(N)(=O)=O [Example 379, (R)-6-((3-amino-2-hydroxypropyl)sulfonyl)-3-(2-amino-6-iodo-1H-benzo[d]imidazol-4-yl)-2-(2H-tetrazol-5-yl)benzenesulfonamide]
[1]; [9]
  IC50: 0.17 nM
[2]
  IC50: 0.0809 nM
[3]
  IC50: 0.123 nM
[4]
  Escherichia coli MITC95: 0.7813 µM
[5]
  Klebsiella pneumoniae MITC95: 1.563 µM
[6]
  Serratia marcescens MITC95: 0.7813 µM
[7]
  P. aeruginosa expressing IMP-1, efflux+ (MB9798) MITC95: 0.3906 µM
  Efflux ratio: 0.50
[8]
  P. aeruginosa expressing IMP-1, efflux− (MB9799) MITC95: 0.7813 µM

## NCCS(=O)(=O)c1ccc(-c2cccc3[nH]c([C@H](N)CO)nc23)c(-c2nn[nH]n2)c1S(N)(=O)=O [Example 329, (S)-3-(2-(1-amino-2-hydroxyethyl)-1H-benzo[d]imidazol-4-yl)-6-((2-aminoethyl)sulfonyl)-2-(2H-tetrazol-5-yl) benzenesulfonamide]
[1]; [9]
  IC50: 1.93 nM
[2]
  IC50: 0.404 nM
[3]
  IC50: 0.282 nM
[4]
  Escherichia coli MITC95: 1.563 µM
[5]
  Klebsiella pneumoniae MITC95: 6.25 µM
[6]
  Serratia marcescens MITC95: 3.125 µM
[7]
  P. aeruginosa expressing IMP-1, efflux+ (MB9798) MITC95: 3.125 µM
  Efflux ratio: 2.00
[8]
  P. aeruginosa expressing IMP-1, efflux− (MB9799) MITC95: 1.563 µM

## Cc1ccc(-c2ccc(S(=O)(=O)C3CNC3)c(S(N)(=O)=O)c2-c2nn[nH]n2)c2nc(N)sc12 [Example 32, 3-(2-amino-7-methylbenzo[d]thiazol-4-yl)-6-(azetidin-3-ylsulfonyl)-2-(2H-tetrazol-5-yl)benzenesulfonamide]
[1]; [9]
  IC50: 0.138 nM
[2]
  IC50: 0.0331 nM
[3]
  IC50: 0.106 nM
[4]
  Escherichia coli expressing NDM-1 (CLB30016) MITC95: 0.3906 µM
[5]
  Klebsiella pneumoniae expressing VIM-1 (IHMA599644) MITC95: 1.563 µM
[6]
  Serratia marcescens expressing IMP-1 (CL5741) MITC95: 0.7813 µM
[7]
  P. aeruginosa expressing IMP-1, efflux+ (MB9798) MITC95: 1.563 µM
  Efflux ratio: 2.00
[8]
  P. aeruginosa expressing IMP-1, efflux− (MB9799) MITC95: 0.7813 µM

## NS(=O)(=O)c1c(S(=O)(=O)CC2CNC2)ccc([C@H]2CC[C@@H](N)CC2)c1-c1nnn[nH]1 [Example 205, 3-((1s, 4s)-4-aminocyclohexyl)-6-((azetidin-3-ylmethyl)sulfonyl)-2-(1H-tetrazol-5-yl)benzenesulfonamide]
[1]; [9]
  IC50: 82.5 nM
[2]
  IC50: 44.6 nM
[3]
  IC50: 6.64 nM
[4]
  Escherichia coli expressing NDM-1 (CLB30016) MITC95: 1.563 µM
[5]
  Klebsiella pneumoniae expressing VIM-1 (IHMA599644) MITC95: 3.125 µM
[6]
  Serratia marcescens expressing IMP-1 (CL5741) MITC95: 3.125 µM
[7]
  P. aeruginosa expressing IMP-1, efflux+ (MB9798) MITC95: 6.25 µM
  Efflux ratio: 2.00
[8]
  P. aeruginosa expressing IMP-1, efflux− (MB9799) MITC95: 3.125 µM

## NS(=O)(=O)c1c(S(=O)(=O)C2CNC2)ccc(-c2ccc3scnc3c2)c1-c1nnn[nH]1.O=C(O)C(F)(F)F [Example 114, 3-((4-(benzo[d]thiazol-5-yl)-2-sulfamoyl-3-(1H-tetrazol-5-yl)phenyl)sulfonyl)azetidin-1-ium 2,2,2-trifluoroacetate]
[1]; [9]
  IC50: 0.261 nM
[2]
  IC50: 0.15 nM
[3]
  IC50: 0.116 nM
[4]
  Escherichia coli expressing NDM-1 (CLB30016) MITC95: 0.3906 µM
[5]
  Klebsiella pneumoniae expressing VIM-1 (IHMA599644) MITC95: 1.563 µM
[6]
  Serratia marcescens expressing IMP-1 (CL5741) MITC95: 0.7813 µM
[7]
  P. aeruginosa expressing IMP-1, efflux+ (MB9798) MITC95: 6.25 µM
  Efflux ratio: 8.00
[8]
  P. aeruginosa expressing IMP-1, efflux− (MB9799) MITC95: 0.7813 µM

## NCCS(=O)(=O)c1ccc(-c2cccc3oc(N)nc23)c(-c2nn[nH]n2)c1S(N)(=O)=O [Example 76, 3-(2-aminobenzo[d]oxazol-4-yl)-6-(2-aminoethylsulfonyl)-2-(2H-tetrazol-5-yl)benzenesulfonamide]
[1]
  IC50: 0.258 nM
[2]
  IC50: 0.148 nM
[3]
  IC50: 0.24 nM
[4]
  Escherichia coli expressing NDM-1 (CLB30016) MITC95: 0.7813 µM
[5]
  Klebsiella pneumoniae expressing VIM-1 (IHMA599644) MITC95: 1.563 µM
[6]
  Serratia marcescens expressing IMP-1 (CL5741) MITC95: 0.7813 µM
[7]
  P. aeruginosa expressing IMP-1, efflux+ (MB9798) MITC95: 0.7813 µM
  Efflux ratio: 1.00
[8]
  P. aeruginosa expressing IMP-1, efflux− (MB9799) MITC95: 0.7813 µM

## NCCS(=O)(=O)c1ccc(-c2cnc(N)c(C(N)=O)c2)c(-c2nn[nH]n2)c1S(N)(=O)=O [Example 335, 2-Amino-5-(4-((2-aminoethyl)sulfonyl)-3-sulfamoyl-2-(2H-tetrazol-5-yl)phenyl)nicotinamide]
[1]; [9]
  IC50: 8.9 nM
[2]
  IC50: 3.22 nM
[3]
  IC50: 1.23 nM
[4]
  Escherichia coli MITC95: 1.563 µM
[5]
  Klebsiella pneumoniae MITC95: 3.125 µM
[6]
  Serratia marcescens MITC95: 1.563 µM
[7]
  P. aeruginosa expressing IMP-1, efflux+ (MB9798) MITC95: 12.5 µM
  Efflux ratio: 8.00
[8]
  P. aeruginosa expressing IMP-1, efflux− (MB9799) MITC95: 1.563 µM

## Nc1ncccc1-c1ccc(S(=O)(=O)C2CNC2)c(S(N)(=O)=O)c1-c1nn[nH]n1 [Example 219, 3-(2-aminopyridin-3-yl)-6-(azetidin-3-ylsulfonyl)-2-(2H-tetrazol-5-yl) benzenesulfonamide]
[1]; [9]
  IC50: 5.66 nM
[2]
  IC50: 0.647 nM
[3]
  IC50: 0.52 nM
[4]
  Escherichia coli expressing NDM-1 (CLB30016) MITC95: 0.125 µM
[5]
  Klebsiella pneumoniae expressing VIM-1 (IHMA599644) MITC95: 1.281 µM
[6]
  Serratia marcescens expressing IMP-1 (CL5741) MITC95: 0.6406 µM
[7]
  P. aeruginosa expressing IMP-1, efflux+ (MB9798) MITC95: 6.25 µM
  Efflux ratio: 4.88
[8]
  P. aeruginosa expressing IMP-1, efflux− (MB9799) MITC95: 1.281 µM

## NCCS(=O)(=O)c1ccc(-c2cncc3sc(N)nc23)c(-c2nn[nH]n2)c1S(N)(=O)=O [Example 81, 6-((2-aminoethyl)sulfonyl)-3-(2-aminothiazolo[5,4-c]pyridin-7-yl)-2-(2H-tetrazol-5-yl)benzenesulfonamide hydrochloride]
[1]
  IC50: 0.266 nM
[2]
  IC50: 0.29 nM
[3]
  IC50: 0.356 nM
[4]
  Escherichia coli expressing NDM-1 (CLB30016) MITC95: 0.7813 µM
[5]
  Klebsiella pneumoniae expressing VIM-1 (IHMA599644) MITC95: 3.125 µM
[6]
  Serratia marcescens expressing IMP-1 (CL5741) MITC95: 1.563 µM
[7]
  P. aeruginosa expressing IMP-1, efflux+ (MB9798) MITC95: 0.7813 µM
  Efflux ratio: 1.00
[8]
  P. aeruginosa expressing IMP-1, efflux− (MB9799) MITC95: 0.7813 µM
